Assay: log P determination by HPLC (reversed-phase C18), EEC Directive 79/831 Annex V.A8
Format: physicochemical
Settings: pH 2.3; HPLC, reversed-phase C 18, 43° C., 0.1% aqueous phosphoric acid/acetonitrile; read-out: log P (pH 2.3)
Procedure: The stated log P values were determined in accordance with EEC Directive 79/831 Annex V.A8 by HPLC (High Performance Liquid Chromatography) using a reversed-phase column, (C 18). Temperature: 43° C. Mobile phases for the determination in the acidic range: 0.1% aqueous phosphoric acid, acetonitrile; linear gradient from 10% acetonitrile to 90% acetonitrile. Calibration was carried out using unbranched alkan-2-ones (having 3 to 16 carbon atoms) with known logP values (determination of the logP values by the retention times using linear interpolation between two successive alkanones).

SMILES	chromatographic logP
CCOC(=O)NCc1nccc(-c2ccccn2)n1 [Example 8, ethyl [4-(2-pyridinyl)-2-pyrimidinyl]methylcarbamate]	1.14

Same assay, conditions: reversed-phase C18 HPLC column; pH 2.3; HPLC, reversed-phase C 18, 43° C., 0.1% aqueous phosphoric acid/acetonitrile; read-out: log P (pH 2.3)

SMILES	chromatographic logP
CS(=O)(=O)c1nccc(-c2ccccn2)n1 [2-(methylsulphonyl)-4-(2-pyridinyl)pyrimidine]	0.99
CSc1nccc(-c2ccccn2)n1 [2-(methylthio)-4-(2-pyridinyl)pyrimidine]	1.93
CC(C)OC(=O)CSc1nccc(-c2ccccn2)n1 [Example 1, isopropyl {[4-(2-pyridinyl)-2-pyrimidinyl]thio}-acetate]	2.56
CCOC(=O)C(C)Sc1nccc(-c2ccccn2)n1 (stereo not shown) [Example 2, ethyl-2-{[4-(2-pyridinyl)-2-pyrimidinyl]thio}-propanoate]	2.74
CN(C(=O)CSc1nccc(-c2ccccn2)n1)c1ccc(Cl)cc1 [Example 3, N-(4-chlorophenyl)-N-methyl-2-{[4-(2-pyridinyl)-2-pyrimidinyl]thio}acetamide]	2.73
CCOC(=O)CSc1nc(C)cc(-c2ccccn2)n1 [Example 4, ethyl {[4-methyl-6-(2-pyridinyl)-2-pyrimidinyl]thio}acetate]	2.45
CCOC(=O)CNc1nccc(-c2ccccn2)n1 [Example 5, ethyl N-(4-(2-pyridinyl)-2-pyrimidinyl]glycinate]	1.14
CCOC(=O)CN(C)c1nccc(-c2ccccn2)n1 [Example 6, ethyl N-methyl-N-[4-(2-pyridinyl)-2-pyrimidinyl]glycinate]	1.66
CCOC(=O)COc1nccc(-c2ccccn2)n1 [Example 7, ethyl {[4-(2-pyridinyl)-2-pyrimidinyl]oxy}acetate]	1.73
COC(=O)CSc1nccc(-c2ccccn2)n1 [Example 10]	1.81
O=C(O)CSc1nccc(-c2ccccn2)n1 [Example 11]	1.14
COC(=O)CS(=O)(=O)c1nccc(-c2ccccn2)n1 [Example 12]	1.37
CCOC(=O)CSc1nccc(-c2ccccn2)n1 [Example 13]	2.17
COC(=O)CC(=O)CSc1nccc(-c2ccccn2)n1 [Example 14]	1.76
O=C(CSc1nccc(-c2ccccn2)n1)Oc1ccccc1 [Example 15]	2.88
CCCOC(=O)CSc1nccc(-c2ccccn2)n1 [Example 16]	2.76
C=COC(=O)CSc1nccc(-c2ccccn2)n1 [Example 17]	2.37
C=CCOC(=O)CSc1nccc(-c2ccccn2)n1 [Example 18]	2.4
O=C(CSc1nccc(-c2ccccn2)n1)OCc1ccccc1 [Example 19]	2.99
COCCOC(=O)CSc1nccc(-c2ccccn2)n1 [Example 20]	1.97
O=C(CSc1nccc(-c2ccccn2)n1)OC1CCCCC1 [Example 21]	3.53

SMILES	chromatographic logP
CCOC(=O)C(C)OC(=O)CSc1nccc(-c2ccccn2)n1 (stereo not shown) [Example 22]	2.58
COC(=O)C(Sc1nccc(-c2ccccn2)n1)C(C)=O (stereo not shown) [Example 23]	2.34
COC(=O)C(Sc1nccc(-c2ccccn2)n1)C(=O)OC [Example 24]	2.16
CCC(Sc1nccc(-c2ccccn2)n1)C(=O)OC (stereo not shown) [Example 25]	2.68
COC(=O)C(Sc1nccc(-c2ccccn2)n1)c1ccccc1 (stereo not shown) [Example 26]	3.5
COC(=O)C(Cc1cccc(Cl)c1)Sc1nccc(-c2ccccn2)n1 (stereo not shown) [Example 27]	3.84
CCN(CC)C(=O)CSc1nccc(-c2ccccn2)n1 [Example 28]	1.8
NC(=O)CSc1nccc(-c2ccccn2)n1 [Example 29]	0.69
CCOC(=O)/C=C/CSc1nccc(-c2ccccn2)n1 [Example 30]	2.92
COC(=O)/C=C(/CSc1nccc(-c2ccccn2)n1)OC [Example 31]	2.7
CC(C)CNC(=O)CSc1nccc(-c2ccccn2)n1 [Example 32]	1.81
O=C(CSc1nccc(-c2ccccn2)n1)Nc1ccc(Cl)cc1 [Example 33]	2.58
COC(=O)/C(O)=C\c1nccc(-c2ccccn2)n1 [Example 34]	1.89
CC(C)(C)OC(=O)CSc1nccc(-c2ccccn2)n1 [Example 35]	2.96
O=C(CSc1nccc(-c2ccccn2)n1)NO [Example 36]	0.55
O=C(CSc1nccc(-c2ccccn2)n1)NCc1ccc(SC(F)(F)F)cc1 [Example 37]	2.93
O=C(CSc1nccc(-c2ccccn2)n1)NCCc1ccc(OC(F)(F)F)cc1 [Example 38]	2.96
O=C(CSc1nccc(-c2ccccn2)n1)NCc1ccccc1OC(F)(F)F [Example 39]	2.72
O=C(CSc1nccc(-c2ccccn2)n1)NCc1ccc(OC(F)(F)F)cc1 [Example 40]	2.76
O=C(CSc1nccc(-c2ccccn2)n1)NCCc1ccc(Cl)cc1Cl [Example 41]	2.83
O=C(CSc1nccc(-c2ccccn2)n1)NCCc1cccc(C(F)(F)F)c1 [Example 42]	2.82

SMILES	chromatographic logP
CC(NC(=O)CSc1nccc(-c2ccccn2)n1)c1ccc(C(C)(C)C)cc1 (stereo not shown) [Example 43]	3.4
O=C(CSc1nccc(-c2ccccn2)n1)NCc1ccc(Cl)c(Cl)c1 [Example 44]	2.64
O=C(CSc1nccc(-c2ccccn2)n1)NCc1ccc(Cl)cc1Cl [Example 45]	2.69
O=C(CSc1nccc(-c2ccccn2)n1)NCc1cccc(C(F)(F)F)c1 [Example 46]	2.62
O=C(CSc1nccc(-c2ccccn2)n1)NCc1ccc(C(F)(F)F)cc1 [Example 47]	2.64
O=C(CSc1nccc(-c2ccccn2)n1)NCc1ccc(F)c(Cl)c1 [Example 48]	2.42
CN(Cc1ccc(Cl)nc1)C(=O)CSc1nccc(-c2ccccn2)n1 [Example 49]	2.01
CC(NC(=O)CSc1nccc(-c2ccccn2)n1)c1ccc(Cl)cc1 (stereo not shown) [Example 50]	2.58
O=C(CSc1nccc(-c2ccccn2)n1)NCCc1ccc(Cl)cc1 [Example 51]	2.58
O=C(CSc1nccc(-c2ccccn2)n1)NCc1ccc2c(c1)OCO2 [Example 52]	1.94
O=C(CSc1nccc(-c2ccccn2)n1)NCc1ccc(Cl)nc1 [Example 53]	1.71
O=C(CSc1nccc(-c2ccccn2)n1)NCc1ccc(Cl)cc1 [Example 54]	2.38
COc1ccc(CNC(=O)CSc2nccc(-c3ccccn3)n2)cc1 [Example 55]	2
Cc1ccc(CCNC(=O)CSc2nccc(-c3ccccn3)n2)cc1 [Example 56]	2.56
Cc1ccc(C(C)NC(=O)CSc2nccc(-c3ccccn3)n2)cc1 (stereo not shown) [Example 57]	2.48
CC(C)N1CCN(C(=O)CSc2nccc(-c3ccccn3)n2)CC1 [Example 58]	0.95
Cc1cccc(CNC(=O)CSc2nccc(-c3ccccn3)n2)c1 [Example 59]	2.29
CC1CN(C(=O)CSc2nccc(-c3ccccn3)n2)CC(C)O1 (stereo not shown) [Example 60]	1.94
CN(C(=O)CSc1nccc(-c2ccccn2)n1)C1CCCCC1 [Example 61]	2.67
O=C(CSc1nccc(-c2ccccn2)n1)NCc1ccccn1 [Example 62]	1.14
O=C(CSc1nccc(-c2ccccn2)n1)NC1CCCCC1 [Example 63]	2.31

SMILES	chromatographic logP
O=C(CSc1nccc(-c2ccccn2)n1)NCc1ccco1 [Example 64]	1.82
O=C(CSc1nccc(-c2ccccn2)n1)N1CCOCC1 [Example 65]	1.55
O=C(CSc1nccc(-c2ccccn2)n1)N1CCCCC1 [Example 66]	2.09
O=C(CSc1nccc(-c2ccccn2)n1)NCC1CC1 [Example 67]	1.83
O=C(CSc1nccc(-c2ccccn2)n1)N1CCCC1 [Example 68]	1.75
O=C(CSc1nccc(-c2ccccn2)n1)NC1CC1 [Example 69]	1.56
C=CCNC(=O)CSc1nccc(-c2ccccn2)n1 [Example 70]	1.65
COC(=O)CCCSc1nccc(-c2ccccn2)n1 [Example 76]	2.35
COC(=O)CSc1nc(-c2ccccn2)c2cc(Cl)ccc2n1 [Example 77]	3.46
COC(=O)CCSc1nccc(-c2ccccn2)n1 [Example 78]	2.13
COC(=O)CCCCSc1nccc(-c2ccccn2)n1 [Example 79]	2.68
CCCOC(=O)C(Sc1nccc(-c2ccccn2)n1)C(C)C (stereo not shown) [Example 80]	3.96
O=C(CSc1nccc(-c2ccccn2)n1)OCCc1ccccc1 [Example 83]	3.37
CCOC(=O)CCCOC(=O)CSc1nccc(-c2ccccn2)n1 [Example 84]	2.72
CCCCCCCCCCOC(=O)CSc1nccc(-c2ccccn2)n1 [Example 85]	6.15
CCCCCCCCCCCCOC(=O)CSc1nccc(-c2ccccn2)n1 [Example 86]	7.22
O=C(CSc1nccc(-c2ccccn2)n1)OCCCCOc1ccccc1 [Example 88]	3.86
CC(C)CCOC(=O)CSc1nccc(-c2ccccn2)n1 [Example 89]	3.56
O=C(CSc1nccc(-c2ccccn2)n1)OCCCOc1ccc(F)cc1 [Example 91]	3.59
CC(=O)OCCCCCOC(=O)CSc1nccc(-c2ccccn2)n1 [Example 93]	2.82
CC(C)(C)OC(=O)CCCOC(=O)CSc1nccc(-c2ccccn2)n1 [Example 94]	3.48
